Reference: patent US6894046B2, “IL-5 inhibiting 6-azauracil derivatives” (Janssen Pharmaceutica N.V., priority 1998, dated 2005)
Where a name gives a salt, the structure may show the parent alone.

Tested on: IL-5 production in human blood
Assay: In vitro inhibition of IL-5 production in human blood (phytohemagglutinin-stimulated whole blood, ELISA)
Assay type: cell-based
Conditions: test dose 1×10^−6 M, phytohemagglutinin 2 μg/ml, 48 hours; for inhibition at 1 µM: read-out: % inh. (percentage inhibition of IL-5 production)
Method: EXAMPLE C.1: IN VITRO INHIBITION OF IL-5 PRODUCTION IN HUMAN BLOOD
Peripheral blood from healthy male donors was drawn into heparinized syringes (12.5 U heparin/ml). Blood samples were three-fold diluted in RMPI 1640 medium (Life Technologies, Belgium) supplemented with 2 mM L-glutamine, 100 U/ml penicillin and 100 μg/ml streptomycin, and 300 μl fractions were distributed in 24-well multidisc plates. Blood samples were preincubated (60 minutes at 37° C.) in a humidified 6% CO2-atmosphere with 100 μl of drug solvent (final concentration 0.02% dimethylsulfoxide in RPMI 1640) or with 100 μl of an appropriate dose of test compound before being stimulated by the addition of 100 μl of phytohemagglutinin HA17 (Murex, UK) at a final concentration of 2 μg/ml. After 48 hours, cell-free supernatant fluids were collected by centrifugation and stored at −70° C. until tested for the presence of IL-5.
IL-5 measurements were conducted as described in Van Wauwe et al. (1996, Inflamm Res, 45, 357-363) on page 358 using ELISA.
Table 6 lists the percentage inhibition of IL-5 production (column “% inh”) at a test dose of 1×10^−6 M, or in case the percentage inhibition is marked with an “*” 1×10^−5 M, for the compounds of the present invention.

| Compound | inhibition at 1 µM [%] | % inh. (percentage inhibition of IL-5 production) [%] |
| --- | --- | --- |
| CN1CCN(Cc2ccccc2-c2nc(C(C)(C)c3c(Cl)cc(-n4ncc(=O)[nH]c4=O)cc3Cl)no2)CC1 [Compound 94, 2-[3,5-dichloro-4-[1-methyl-1-[5-[2-[(4-methyl-1-piperazinyl)methyl]phenyl]-1,2,4-oxadiazol-3-yl]ethyl]phenyl]-1,2,4-triazine-3,5(2H,4H)-dione trihydrochloride] | 34 | – |
| CC(C)(c1noc(-c2ccc(F)cc2)n1)c1c(Cl)cc(-n2ncc(=O)[nH]c2=O)cc1Cl [Compound 96] | – | 82 |
| CC(C)(c1noc(-c2ccncc2)n1)c1c(Cl)cc(-n2ncc(=O)[nH]c2=O)cc1Cl [Compound 97, 2-[3,5-dichloro-4-[1-methyl-1-[5-(4-pyridinyl)-1,2,4-oxadiazol-3-yl]ethyl]phenyl]-1,2,4-triazine-3,5(2H,4H)-dione] | 90 | – |
| CC(C)(c1noc(-c2ccccn2)n1)c1c(Cl)cc(-n2ncc(=O)[nH]c2=O)cc1Cl [Compound 98] | – | 58 |
| CC(C)(NC(=O)c1cccnc1)c1c(Cl)cc(-n2ncc(=O)[nH]c2=O)cc1Cl [Compound 101] | – | 19 |
| Cc1ccc(-c2nc(C(C)(C)c3c(Cl)cc(-n4ncc(=O)[nH]c4=O)cc3Cl)sc2Br)s1 [Compound 111] | – | 88 |
| CN1CCN(Cc2ccc(-c3csc(C(C)(C)c4c(Cl)cc(-n5ncc(=O)[nH]c5=O)cc4Cl)n3)s2)CC1 [Compound 112] | – | 39 |
| CN1CCN(Cc2ccsc2-c2csc(C(C)(C)c3c(Cl)cc(-n4ncc(=O)[nH]c4=O)cc3Cl)n2)CC1.O [Compound 113] | – | 28 |
| CC(C)(C)OC(=O)c1sc(C(C)(C)c2c(Cl)cc(-n3ncc(=O)[nH]c3=O)cc2Cl)nc1-c1ccccc1 [Compound 116] | – | 89 |
| CC(C)(c1nc(-c2ccccc2)c(C(=O)O)s1)c1c(Cl)cc(-n2ncc(=O)[nH]c2=O)cc1Cl [Compound 117] | – | −7 |
| CCOC(=O)Cc1sc(C(C)(C)c2c(Cl)cc(-n3ncc(=O)[nH]c3=O)cc2Cl)nc1-c1cccs1 [Compound 118] | – | 78 |
| CC(C)(C)OC(=O)c1sc(C(C)(C)c2c(Cl)cc(-n3ncc(=O)[nH]c3=O)cc2Cl)nc1-c1cccs1 [Compound 119] | – | 93 |
| CC(C)(c1nc(-c2cccs2)c(C(=O)O)s1)c1c(Cl)cc(-n2ncc(=O)[nH]c2=O)cc1Cl [Compound 120] | – | 8 |
| CC(C)(c1nc(-c2cccs2)c(CC(=O)O)s1)c1c(Cl)cc(-n2ncc(=O)[nH]c2=O)cc1Cl [Compound 121] | – | −3 |
| CC(C)OC(=O)c1sc(C(C)(C)c2c(Cl)cc(-n3ncc(=O)[nH]c3=O)cc2Cl)nc1-c1ccccc1 [Compound 122] | – | 94 |
| CC(C)(c1noc(-c2cccnc2)n1)c1c(Cl)cc(-n2ncc(=O)[nH]c2=O)cc1Cl [Compound 124, 2-[3,5-dichloro-4-[1-methyl-1-[5-(3-pyridinyl)-1,2,4-oxadiazol-3-yl]ethyl]phenyl]-1,2,4-triazine-3,5(2H,4H)-dione] | 86 | – |
| Cc1ccc(-c2nc(C(C)(C)c3c(Cl)cc(-n4ncc(=O)[nH]c4=O)cc3Cl)no2)cc1 [Compound 125] | – | 43 |
| CC(C)(c1noc(-c2cccc(CO)c2)n1)c1c(Cl)cc(-n2ncc(=O)[nH]c2=O)cc1Cl [Compound 127] | – | 67 |
| COC(=O)c1cccc(-c2nc(C(C)(C)c3c(Cl)cc(-n4ncc(=O)[nH]c4=O)cc3Cl)no2)c1 [Compound 133] | – | 55 |
| COC(=O)c1ccc(-c2nc(C(C)(C)c3c(Cl)cc(-n4ncc(=O)[nH]c4=O)cc3Cl)no2)cc1 [Compound 135] | – | 11 |
| Cc1c(F)cccc1-c1nc(C(C)(C)c2c(Cl)cc(-n3ncc(=O)[nH]c3=O)cc2Cl)no1 [Compound 144] | – | 90 |
| COC(=O)c1ccc(-c2nc(C(C)(C)c3c(Cl)cc(-n4ncc(=O)[nH]c4=O)cc3Cl)no2)nc1 [Compound 146] | – | 4 |
| Cc1ncccc1-c1nc(C(C)(C)c2c(Cl)cc(-n3ncc(=O)[nH]c3=O)cc2Cl)no1 [Compound 150, 2-[3,5-dichloro-4-[1-methyl-1-[5-(2-methyl-3-pyridinyl)-1,2,4-oxadiazol-3-yl]ethyl]phenyl]-1,2,4-triazine-3,5(2H,4H)-dione] | 73 | – |
| Cc1ccnc(C)c1-c1nc(C(C)(C)c2c(Cl)cc(-n3ncc(=O)[nH]c3=O)cc2Cl)no1.ClCCl [Compound 151] | – | 74 |
| CC(C)(c1noc(C2CCNCC2)n1)c1c(Cl)cc(-n2ncc(=O)[nH]c2=O)cc1Cl.Cl [Compound 152] | – | 21 |
| CC(C)(c1noc(-c2ccccc2C(F)(F)F)n1)c1c(Cl)cc(-n2ncc(=O)[nH]c2=O)cc1Cl [Compound 153] | – | 77 |
| CC(C)(c1noc(-c2ccccc2CO)n1)c1c(Cl)cc(-n2ncc(=O)[nH]c2=O)cc1Cl [Compound 155] | – | 85 |
| CC(C)(c1noc(-c2ccccc2CC(=O)O)n1)c1c(Cl)cc(-n2ncc(=O)[nH]c2=O)cc1Cl [Compound 158] | – | 3 |
| (α+β)-2-[3,5-dichloro-4-[1-[5-[3-[[tetrahydro-3,4,5-trihydroxy-6-hydroxymethyl)-2H-pyran-2H-pyran-2-yl]amino]phenyl]-4-phenyl-2-thiazolyl]-1-methylethyl]phenyl]-1,2,4-triazine-3,5(2H,4H)-dione 2-propanolate(1:1) [Compound 64] | – | 86 |
